From ChEMBL document CHEMBL1201862, “PubChem BioAssay data set” (2004)
Each block holds one compound with its values, some of them ahead of it. Active and inactive are the calls of the source.

How the values were obtained:
[1] = inhibitors of cytokine-induced nitrite release, dose response, cell-based, Griess absorbance, INS-1E, dry powder, set 3 (AID 488870); type: functional; conditions: Rattus norvegicus
INS1 [2] = test: inhibitors of cytokine-induced nitrite release, dose response, cell-based, Griess absorbance, INS-1E, dry powder, set 2 (AID 488868); type: functional; conditions: Rattus norvegicus
INS1 [3] = test: INS-1E beta-cell viability without cytokines, dose response, cytotoxicity control for beta-cell cytokine protection project, CellTiter-Glo luminescence, dry powder (AID 488864); type: functional, cell-based; conditions: Rattus norvegicus
[4] = A549 cell cytotoxicity, dose response, cytotoxicity control, plate reader, cherry-pick, antagonist series (AID 743412); type: functional, cell-based
[5] = HepG2 cell cytotoxicity, dose response, cytotoxicity control, plate reader, cherry-pick, antagonist series (AID 743416); type: functional, cell-based
[6] = LGR2 antagonists, dose response, cell-based, HEK293, CRE-luciferase reporter, cherry pick, set 2 (AID 743343); type: functional;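 note: transfected cells were stimulated with diluted bursicon conditioned medium after compound addition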
[7] = MC4R antagonists, dose response, counter-screen for LGR2 antagonist project, cell-based, plate reader, cherry pick (AID 743444); type: functional;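 note: transfected HEK 293 cells stimulated with alpha-MSH peptide; potency of inhibitors of the alpha-MSH evoked signal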
[8] = HEK293 cell cytotoxicity, dose response, cytotoxicity control, plate reader, cherry-picked samples (AID 743446); type: functional, cell-based
[9] = biological target: T1, Sentrin-specific protease 8 (Homo sapiens, UniProt Q96LD8); test: SENP8 protease inhibitors, SAR follow-up, biochemical, luminescence (AID 504501); type: functional
T1 sequence (Q96LD8 whole entry): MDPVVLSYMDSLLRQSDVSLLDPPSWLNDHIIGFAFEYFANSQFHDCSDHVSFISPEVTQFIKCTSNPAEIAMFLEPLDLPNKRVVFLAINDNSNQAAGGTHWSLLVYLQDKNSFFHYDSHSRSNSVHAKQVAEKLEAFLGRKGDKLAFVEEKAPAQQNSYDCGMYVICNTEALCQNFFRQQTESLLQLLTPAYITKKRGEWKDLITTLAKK

Caspase-3 [10] = biological target: T2, Caspase-3 (Homo sapiens, UniProt P42574); test: caspase-3 inhibitors as off-family protease, SAR follow-up, selectivity assay for SENP protease inhibitor project, biochemical, luminescence, set 2 (AID 588599); type: functional
T2 sequence (P42574 whole entry): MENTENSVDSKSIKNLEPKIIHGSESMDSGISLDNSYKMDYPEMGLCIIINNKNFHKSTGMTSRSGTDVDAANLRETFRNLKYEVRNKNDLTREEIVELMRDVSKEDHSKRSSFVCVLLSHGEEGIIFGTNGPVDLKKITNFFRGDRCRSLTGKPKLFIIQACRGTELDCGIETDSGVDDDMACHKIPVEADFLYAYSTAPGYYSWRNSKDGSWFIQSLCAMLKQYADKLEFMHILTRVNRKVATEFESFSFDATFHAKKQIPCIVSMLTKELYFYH

[11] = biological target: T1, Sentrin-specific protease 8; test: SENP8 protease inhibitors, SAR follow-up, biochemical, luminescence, set 2 (AID 588601); type: functional
Caspase-3 [12] = biological target: T2, Caspase-3; test: SAR Analysis of small molecule inhibitors of Sentrin-specific proteases (SENPs) using a Caspase-3 Selectivity assay. [Related pubchem assays (depositor defined):AID2540, AID2599, AID434973, AID489001]; type: functional
[13] = biological target: T3, Sentrin-specific protease 7 (Homo sapiens, UniProt Q9BQF6); test: SENP7 protease inhibitors, SAR follow-up, biochemical, luminescence, set 2 (AID 588600); type: functional
T3 sequence (Q9BQF6 whole entry): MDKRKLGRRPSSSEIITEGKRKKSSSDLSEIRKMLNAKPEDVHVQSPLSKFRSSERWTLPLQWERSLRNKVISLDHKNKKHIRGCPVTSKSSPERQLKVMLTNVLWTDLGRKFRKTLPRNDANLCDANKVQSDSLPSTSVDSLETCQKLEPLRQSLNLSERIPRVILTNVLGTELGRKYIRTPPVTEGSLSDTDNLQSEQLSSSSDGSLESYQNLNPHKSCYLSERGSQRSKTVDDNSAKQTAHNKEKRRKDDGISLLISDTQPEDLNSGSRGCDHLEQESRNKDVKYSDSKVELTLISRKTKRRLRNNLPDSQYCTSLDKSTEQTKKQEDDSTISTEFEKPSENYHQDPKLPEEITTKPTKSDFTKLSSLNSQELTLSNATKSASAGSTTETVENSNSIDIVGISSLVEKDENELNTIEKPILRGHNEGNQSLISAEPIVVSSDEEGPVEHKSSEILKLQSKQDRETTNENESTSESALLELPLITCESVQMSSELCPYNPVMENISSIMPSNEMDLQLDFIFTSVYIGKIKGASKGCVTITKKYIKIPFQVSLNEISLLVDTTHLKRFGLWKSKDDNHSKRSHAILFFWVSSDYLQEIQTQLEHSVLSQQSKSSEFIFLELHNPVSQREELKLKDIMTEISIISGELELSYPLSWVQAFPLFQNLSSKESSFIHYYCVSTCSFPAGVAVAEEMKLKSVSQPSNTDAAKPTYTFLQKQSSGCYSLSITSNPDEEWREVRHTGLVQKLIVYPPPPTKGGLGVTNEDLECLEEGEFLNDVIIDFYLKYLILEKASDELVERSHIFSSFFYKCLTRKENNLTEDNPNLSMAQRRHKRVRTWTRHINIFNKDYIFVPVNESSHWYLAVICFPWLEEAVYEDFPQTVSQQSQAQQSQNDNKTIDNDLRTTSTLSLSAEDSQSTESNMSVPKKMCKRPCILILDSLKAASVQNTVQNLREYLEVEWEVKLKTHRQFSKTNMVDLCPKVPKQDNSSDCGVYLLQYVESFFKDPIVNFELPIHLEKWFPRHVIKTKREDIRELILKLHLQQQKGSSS

[14] = biological target: T4, Sentrin-specific protease 6 (Homo sapiens, UniProt Q9GZR1); test: SAR Analysis of small molecule inhibitors of Sentrin-specific protease 6 (SENP6) using a Luminescent assay. [Related pubchem assays (depositor defined):AID2582, AID2599]; type: functional
T4 sequence (Q9GZR1 whole entry): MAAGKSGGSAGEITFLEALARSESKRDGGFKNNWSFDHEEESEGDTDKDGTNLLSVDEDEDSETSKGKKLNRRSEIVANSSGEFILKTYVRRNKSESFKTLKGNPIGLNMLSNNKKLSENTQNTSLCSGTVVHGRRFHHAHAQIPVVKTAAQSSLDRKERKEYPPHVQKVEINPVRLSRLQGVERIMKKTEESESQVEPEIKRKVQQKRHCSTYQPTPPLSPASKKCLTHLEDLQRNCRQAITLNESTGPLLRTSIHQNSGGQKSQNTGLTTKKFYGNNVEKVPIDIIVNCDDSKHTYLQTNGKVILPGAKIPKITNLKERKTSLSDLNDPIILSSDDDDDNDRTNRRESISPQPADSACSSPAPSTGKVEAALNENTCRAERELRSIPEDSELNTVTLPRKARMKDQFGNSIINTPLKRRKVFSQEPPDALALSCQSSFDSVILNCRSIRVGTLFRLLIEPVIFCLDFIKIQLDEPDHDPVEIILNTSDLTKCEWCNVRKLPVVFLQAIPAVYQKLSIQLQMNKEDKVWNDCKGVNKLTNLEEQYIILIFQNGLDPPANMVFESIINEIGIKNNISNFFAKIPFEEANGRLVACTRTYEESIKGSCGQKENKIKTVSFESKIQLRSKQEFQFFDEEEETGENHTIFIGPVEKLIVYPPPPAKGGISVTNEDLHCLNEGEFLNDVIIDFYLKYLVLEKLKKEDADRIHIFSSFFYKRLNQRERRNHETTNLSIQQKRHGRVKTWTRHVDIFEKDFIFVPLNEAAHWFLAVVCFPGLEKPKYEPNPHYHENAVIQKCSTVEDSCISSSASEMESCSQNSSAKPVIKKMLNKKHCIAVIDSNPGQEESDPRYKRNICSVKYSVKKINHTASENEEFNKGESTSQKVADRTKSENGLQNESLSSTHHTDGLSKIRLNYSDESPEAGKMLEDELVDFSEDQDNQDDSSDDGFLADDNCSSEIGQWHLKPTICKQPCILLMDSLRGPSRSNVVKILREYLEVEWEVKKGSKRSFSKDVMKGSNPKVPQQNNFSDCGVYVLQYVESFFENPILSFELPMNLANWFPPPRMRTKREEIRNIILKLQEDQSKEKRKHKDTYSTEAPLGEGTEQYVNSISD

[15] = biological target: T4, Sentrin-specific protease 6; test: SENP6 protease inhibitors, SAR follow-up, biochemical, luminescence, set 2 (AID 588598); type: functional
[16] = biological target: T3, Sentrin-specific protease 7; test: SENP7 protease inhibitors, SAR follow-up, biochemical, luminescence (AID 504497); type: functional
[17] = biological target: Protein disulfide-isomerase (Homo sapiens, UniProt P07237); test: PDI inhibitors, insulin aggregation turbidity, dose response, biochemical, absorbance, cherry-picked samples (AID 602350); type: functional
Chain of Protein disulfide-isomerase (P07237 whole entry): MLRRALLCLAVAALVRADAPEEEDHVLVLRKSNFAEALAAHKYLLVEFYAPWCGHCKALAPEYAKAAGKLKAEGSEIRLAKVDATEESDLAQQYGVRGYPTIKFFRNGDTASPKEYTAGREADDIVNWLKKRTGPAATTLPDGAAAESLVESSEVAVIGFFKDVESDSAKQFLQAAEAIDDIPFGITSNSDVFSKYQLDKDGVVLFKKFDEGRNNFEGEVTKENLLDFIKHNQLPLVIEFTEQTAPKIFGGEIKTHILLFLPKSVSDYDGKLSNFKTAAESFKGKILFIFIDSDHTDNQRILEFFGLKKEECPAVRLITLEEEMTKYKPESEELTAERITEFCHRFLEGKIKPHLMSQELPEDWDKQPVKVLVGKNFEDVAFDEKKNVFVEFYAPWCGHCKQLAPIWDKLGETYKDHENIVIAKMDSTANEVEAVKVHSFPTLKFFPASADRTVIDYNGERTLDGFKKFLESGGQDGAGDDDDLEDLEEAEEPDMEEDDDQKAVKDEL

SMILES: COc1ccc(S(=O)(=O)N(C)C[C@@H]2Oc3c(NC(=O)c4nc5ccccc5s4)cccc3C(=O)N([C@@H](C)CO)C[C@H]2C)cc1
- AC50 [1]: 38.6 µM (active)
- AC50 (INS1 [2]): 30.7 µM (active)
- AC50 (INS1 [3]): 32.7 µM (active)
- AC50 [4]: 15 µM (active)
- AC50 [5]: 23.7 µM (active)
- AC50 [6]: 9.82 µM (active)
- AC50 [7]: 28.8 µM (active)
- AC50 [8]: > 52 µM (inactive)

- IC50 (Caspase-3 [10]): > 99 µM (inactive)
- IC50 (Caspase-3 [12]): 35 µM (active)
- IC50 [13]: 2.31 µM (active)
- IC50 [14]: > 99 µM (inactive)
- IC50 [15]: > 99 µM (inactive)
- IC50 [16]: 7.2 µM (active)
SMILES: CC(=O)Nc1ccc(/C=C/c2noc(-c3ccccc3O)n2)cc1
- IC50 [9]: > 99 µM (inactive)
- IC50 [11]: 1.86 µM (active)

- AC50 [17]: 6.5 µM (active)
SMILES: O=C1NC[C@H](Cc2ccccc2)N(C[C@H]2CCCN2C[C@H](Cc2ccccc2)N2C[C@H](Cc3ccc(O)cc3)N(CCc3ccccc3)C(=O)C2=O)C1=O
